# Measurements: PubChem BioAssay (NCI)
#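 Abbreviation: GI50, concentration required for 50% inhibition of growth. TGI: concentration producing complete growth inhibition.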
# Legend:
# Assay in all cases: NCI-60 cell line screen, 384-well format
# SK-MEL-28 melanoma = test system: SK-MEL-28 melanoma
# SNB-75 CNS = test system: SNB-75 CNS
# RXF 393 renal = test system: RXF 393 renal
# COLO 205 colon = test system: COLO 205 colon
# UACC-257 melanoma = test system: UACC-257 melanoma
# BT-549 breast = test system: BT-549 breast
# HCT-116 colon = test system: HCT-116 colon
# SF-539 CNS = test system: SF-539 CNS
# PC-3 prostate = test system: PC-3 prostate
# T-47D breast = test system: T-47D breast
# SR leukemia = test system: SR leukemia
# MDA-MB-435 melanoma = test system: MDA-MB-435 melanoma
# A498 renal = test system: A498 renal
# HCC-2998 colon = test system: HCC-2998 colon
# NCI/ADR-RES ovarian = test system: NCI/ADR-RES ovarian
# CAKI-1 renal = test system: CAKI-1 renal
# SNB-19 CNS = test system: SNB-19 CNS
# LOX IMVI melanoma = test system: LOX IMVI melanoma
# SK-MEL-5 melanoma = test system: SK-MEL-5 melanoma
# HOP-62 NSCLC = test system: HOP-62 NSCLC
# SF-295 CNS = test system: SF-295 CNS
# SN12C renal = test system: SN12C renal
# KM12 colon = test system: KM12 colon
# HT29 colon = test system: HT29 colon
# NCI-H322M lung = test system: NCI-H322M lung
# OVCAR-4 ovarian = test system: OVCAR-4 ovarian
# UACC-62 melanoma = test system: UACC-62 melanoma
# HCT-15 colon = test system: HCT-15 colon
# NCI-H23 lung = test system: NCI-H23 lung
# EKVX NSCLC = test system: EKVX NSCLC
# SF-268 CNS = test system: SF-268 CNS
# K-562 leukemia = test system: K-562 leukemia
# MCF7 breast = test system: MCF7 breast
# MOLT-4 leukemia = test system: MOLT-4 leukemia
# IGROV1 ovarian = test system: IGROV1 ovarian
# MALME-3M melanoma = test system: MALME-3M melanoma
# SW-620 colon = test system: SW-620 colon
# NCI-H460 NSCLC = test system: NCI-H460 NSCLC
# NCI-H522 lung = test system: NCI-H522 lung
# OVCAR-8 ovarian = test system: OVCAR-8 ovarian
# M14 melanoma = test system: M14 melanoma
# NCI-H226 lung = test system: NCI-H226 lung
# HOP-92 NSCLC = test system: HOP-92 NSCLC
# OVCAR-3 ovarian = test system: OVCAR-3 ovarian
# RPMI-8226 leukemia = test system: RPMI-8226 leukemia
# MDA-MB-468 breast = test system: MDA-MB-468 breast
# MDA-MB-231 breast = test system: MDA-MB-231 breast
# HS 578T breast = test system: HS 578T breast
# SK-OV-3 ovarian = test system: SK-OV-3 ovarian
# U251 glioblastoma = test system: U251 glioblastoma
# TK-10 renal = test system: TK-10 renal
# DU-145 prostate = test system: DU-145 prostate
# HL-60(TB) leukemia = test system: HL-60(TB) leukemia
# A549 NSCLC = test system: A549 NSCLC
# 786-0 renal = test system: 786-0 renal
# UO-31 renal = test system: UO-31 renal
# ACHN renal = test system: ACHN renal
# CCRF-CEM leukemia = test system: CCRF-CEM leukemia
smiles,measurement,setting,value
NC(=O)c1ccc2nc(-c3ccc(C4(N)CCC4)cc3)c(-c3ccccc3)n2n1,GI50,SK-MEL-28 melanoma,6.42 µM
same,TGI,SK-MEL-28 melanoma,20.2 µM
same,GI50,SNB-75 CNS,1.25 µM
same,TGI,SNB-75 CNS,14.6 µM
same,GI50,RXF 393 renal,1.6 µM
same,TGI,RXF 393 renal,10.7 µM
same,GI50,COLO 205 colon,2.28 µM
same,TGI,COLO 205 colon,16.9 µM
same,GI50,UACC-257 melanoma,11.3 µM
same,TGI,UACC-257 melanoma,23.4 µM
same,GI50,BT-549 breast,2.01 µM
same,TGI,BT-549 breast,15.2 µM
same,GI50,HCT-116 colon,5.69 µM
same,TGI,HCT-116 colon,18.9 µM
same,GI50,SF-539 CNS,3.59 µM
same,TGI,SF-539 CNS,16.6 µM
same,GI50,PC-3 prostate,0.25 µM
same,TGI,PC-3 prostate,12.8 µM
same,GI50,T-47D breast,0.0282 µM
same,TGI,T-47D breast,2.99 µM
same,GI50,SR leukemia,0.23 µM
same,TGI,SR leukemia,0.99 µM
same,GI50,MDA-MB-435 melanoma,12.6 µM
same,TGI,MDA-MB-435 melanoma,25.2 µM
same,GI50,A498 renal,0.389 µM
same,TGI,A498 renal,10.6 µM
same,GI50,HCC-2998 colon,11.2 µM
same,TGI,HCC-2998 colon,23.2 µM
same,GI50,NCI/ADR-RES ovarian,15.3 µM
same,TGI,NCI/ADR-RES ovarian,29.3 µM
same,GI50,CAKI-1 renal,2.54 µM
same,TGI,CAKI-1 renal,16.8 µM
same,GI50,SNB-19 CNS,13 µM
same,TGI,SNB-19 CNS,25.9 µM
same,GI50,LOX IMVI melanoma,8.43 µM
same,TGI,LOX IMVI melanoma,20.7 µM
same,GI50,SK-MEL-5 melanoma,3.81 µM
same,TGI,SK-MEL-5 melanoma,16.3 µM
same,GI50,HOP-62 NSCLC,12.1 µM
same,TGI,HOP-62 NSCLC,24.5 µM
same,GI50,SF-295 CNS,0.944 µM
same,TGI,SF-295 CNS,11 µM
same,GI50,SN12C renal,8.08 µM
same,TGI,SN12C renal,20.9 µM
same,GI50,KM12 colon,7.11 µM
same,TGI,KM12 colon,20.4 µM
same,GI50,HT29 colon,2.62 µM
same,TGI,HT29 colon,17.9 µM
same,GI50,NCI-H322M lung,9.27 µM
same,TGI,NCI-H322M lung,21.6 µM
same,GI50,OVCAR-4 ovarian,14.6 µM
same,TGI,OVCAR-4 ovarian,28.2 µM
same,GI50,UACC-62 melanoma,3.01 µM
same,TGI,UACC-62 melanoma,16.4 µM
same,GI50,HCT-15 colon,11.9 µM
same,TGI,HCT-15 colon,24.4 µM
same,GI50,NCI-H23 lung,4.85 µM
same,TGI,NCI-H23 lung,17.5 µM
same,GI50,EKVX NSCLC,5.35 µM
same,TGI,EKVX NSCLC,20.3 µM
same,GI50,SF-268 CNS,12.3 µM
same,TGI,SF-268 CNS,24.8 µM
same,GI50,K-562 leukemia,4.2 µM
same,TGI,K-562 leukemia,16.2 µM
same,GI50,MCF7 breast,0.125 µM
same,TGI,MCF7 breast,12.4 µM
same,GI50,MOLT-4 leukemia,0.305 µM
same,TGI,MOLT-4 leukemia,1.93 µM
same,GI50,IGROV1 ovarian,0.25 µM
same,TGI,IGROV1 ovarian,11.7 µM
same,GI50,MALME-3M melanoma,2.14 µM
same,TGI,MALME-3M melanoma,17.1 µM
same,GI50,SW-620 colon,15.8 µM
same,TGI,SW-620 colon,29.3 µM
same,GI50,NCI-H460 NSCLC,1.13 µM
same,TGI,NCI-H460 NSCLC,15.8 µM
same,GI50,NCI-H522 lung,13.7 µM
same,TGI,NCI-H522 lung,26.6 µM
same,GI50,OVCAR-8 ovarian,12.8 µM
same,TGI,OVCAR-8 ovarian,25.5 µM
same,GI50,M14 melanoma,12.8 µM
same,TGI,M14 melanoma,25.5 µM
same,GI50,NCI-H226 lung,8.96 µM
same,TGI,NCI-H226 lung,21.5 µM
same,GI50,HOP-92 NSCLC,5.02 µM
same,TGI,HOP-92 NSCLC,18.7 µM
same,GI50,OVCAR-3 ovarian,0.683 µM
same,TGI,OVCAR-3 ovarian,18 µM
same,GI50,RPMI-8226 leukemia,2.39 µM
same,TGI,RPMI-8226 leukemia,10.3 µM
same,GI50,MDA-MB-468 breast,0.125 µM
same,TGI,MDA-MB-468 breast,8.31 µM
same,GI50,MDA-MB-231 breast,11.4 µM
same,TGI,MDA-MB-231 breast,23.7 µM
same,GI50,HS 578T breast,1.78 µM
same,TGI,HS 578T breast,11.8 µM
same,GI50,SK-OV-3 ovarian,0.538 µM
same,TGI,SK-OV-3 ovarian,12.7 µM
same,GI50,U251 glioblastoma,10.4 µM
same,TGI,U251 glioblastoma,22.2 µM
same,GI50,TK-10 renal,5.7 µM
same,TGI,TK-10 renal,20.5 µM
same,GI50,DU-145 prostate,11.8 µM
same,TGI,DU-145 prostate,24.6 µM
same,GI50,HL-60(TB) leukemia,4.26 µM
same,TGI,HL-60(TB) leukemia,17 µM
same,GI50,A549 NSCLC,5.31 µM
same,TGI,A549 NSCLC,18.6 µM
same,GI50,786-0 renal,2.22 µM
same,TGI,786-0 renal,13.6 µM
same,GI50,UO-31 renal,2.91 µM
same,TGI,UO-31 renal,16 µM
same,GI50,ACHN renal,11.2 µM
same,TGI,ACHN renal,23.3 µM
same,GI50,CCRF-CEM leukemia,0.498 µM
same,TGI,CCRF-CEM leukemia,10.7 µM
